Measurements: US7482341B2, “Pyridines” (Hoffmann-La Roche Inc., priority 2004, dated 2009)

Assays:
11beta-HSD1 [1] = molecular target: T1, 11beta-HSD1 (Homo sapiens, UniProt P28845); assay: Microsome assay (cortisone to cortisol, ELISA); type: biochemical; set-up: made in house; host or cells: HEK293 cells (ATCC CRL-1573), transient transfection with pcDNA3 construct; microsomal fraction; details: microsomes from HEK293 cells transiently expressing human 11beta-HSD1; 60 min, 37° C.; cortisol production 50% reduced; read-out: h 11-beta-HSD 1 IC50
Method: Transient Expression and Partial Purification:
The cDNA encoding the human 11beta-HSD1 protein was cloned into the expression vector pcDNA3 ([…]). This construct (for details see Alex Odermatt et al.; J Biol Chem.,1999, Vol. 274, Issue 40, 28762-28770) was used to transiently express the protein in HEK293 cells (ATCC number: CRL-1573, described in Graham, F. L., Smiley, J., Russell, W. C., Nairn, R.; (1977)) using lipofectamine. 48h after transfection cells were washed twice with ice-cold PBS (Phsophate buffered Saline). To 1 volume of cell suspension in PBS 2 volumes of ice-cold lysis buffer (50 mM Tris; pH7.5; 1 mM EDTA; 100 mM NaCl) were added. The cells were lysed by Potter-homogenization (20 strokes). The resulting homogenate was sonicated wit a tip sonicator (10% output; 2×30 sec.) and cleared by a low speed centrifugation (10 min×9000 g; 4° C.). […]
Microsomes isolated from HEK293 cells transiently expressing human 11beta-HSD1 (for details see above) were incubated in assay buffer (100 mM NaCl; 1 mM EDTA; 1 mM EGTA; 1 mM MgCl; 250 mM Sucrose; 20 mM Tris pH 7.4; Cortisone 50-200 nM and NADPH 1 mM) together with different concentrations of test substances. […] The amount of Cortisol produced in this assay was determined using a commercially available, ELISA-based Cortisol-detection kit (Distributed by Assay Design, Inc.). […]

11beta-HSD1 [2] = molecular target: T1, 11beta-HSD1; set-up: host or cells: human subjects (in vivo); details: humans, treatment with carbenoxolone; cited from earlier work

T1 sequence (P28845 whole entry): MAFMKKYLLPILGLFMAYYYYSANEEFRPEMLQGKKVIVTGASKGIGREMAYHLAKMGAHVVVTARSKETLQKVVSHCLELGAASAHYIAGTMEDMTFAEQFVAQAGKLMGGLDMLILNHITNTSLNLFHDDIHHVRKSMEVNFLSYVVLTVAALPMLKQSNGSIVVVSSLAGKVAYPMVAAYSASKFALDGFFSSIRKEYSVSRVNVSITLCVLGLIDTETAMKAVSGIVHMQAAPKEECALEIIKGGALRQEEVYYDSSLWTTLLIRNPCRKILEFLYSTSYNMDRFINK

Row | Compound | IC50 (11beta-HSD1 [1]) | insulin sensitivity (11beta-HSD1 [2])
1 | Cc1c(Cl)cccc1S(=O)(=O)Nc1ccc(Oc2ccc(F)cc2)cn1 [Example 186, 3-Chloro-N-[5-(4-fluoro-phenoxy)-pyridin-2-yl]-2-methyl-benzenesulfonamide benzenesulfonamide] | 5 nM | –
2 | CC1(C)[C@@H](OC(=O)CCC(=O)O)CC[C@]2(C)[C@H]3C(=O)C=C4[C@@H]5C[C@@](C)(C(=O)O)CC[C@]5(C)CC[C@@]4(C)[C@]3(C)CC[C@@H]12 [carbenoxolone] | – | increase in insulin sensitivity
3 | O=S(=O)(Nc1cccc(COCc2ccc(F)cc2)n1)c1ccc(F)cc1 [Example 105, 4-Fluoro-N-[6-(4-fluoro-benzyloxymethyl)-pyridin-2-yl]-benzenesulfonamide] | 16 nM | –
